The values below come from patent publication US9199943B2, “2-(poly-substituted aryl)-6-amino-5-halo-4-pyrimidinecarboxylic acids and their use as herbicides” (Dow AgroSciences, LLC., priority 2006, dated 2015).

Usually pest or weed control stands for the degree to which the test organism was suppressed or injured, in per cent. By melting point is commonly meant the temperature, or range, at which the solid turns liquid.

Series [1] deals with CHEAL = lambsquarter (Chenopodium album). Briefly: General postemergence herbicidal activity, lambsquarter. It counts as in vivo. Particulars: post-emergent, 140 g ai/ha, visual score after 14 days (0 no injury, 100 complete kill); for pest or weed control at 140 g/ha: Chenopodium album, post-emergence, 336 h. On the procedure: (§1) Seeds or nutlets of the desired test plant species were planted in Sun Gro MetroMix® 306 planting mixture, which typically has a pH of 6.0 to 6.8 and an organic matter content of about 30 percent, in plastic pots with a surface area of 64 square centimeters. When required to ensure good germination and healthy plants, a fungicide treatment and/or other chemical or physical treatment was applied. The plants were grown for 7-21 days in a greenhouse with an approximate 15 hour photoperiod which was maintained at about 23-29° C. during the day and 22-28° C. during the night. Nutrients and water were added on a regular basis and supplemental lighting was provided with overhead metal halide 1000-Watt lamps as necessary. The plants were employed for testing when they reached the first or second true leaf stage.
(§2) A weighed amount, determined by the highest rate to be tested, of each test compound was placed in a 25 mL glass vial and was dissolved in 4 mL of a 97:3 v/v (volume/volume) mixture of acetone and dimethyl sulfoxide (DMSO) to obtain concentrated stock solutions. […] The concentrated stock solutions obtained were diluted with 20 mL of an aqueous mixture containing acetone, water, isopropyl alcohol, DMSO, Atplus 411F crop oil concentrate, and Triton X-155 surfactant in a 48.5:39:10:1.5:1.0:0.02 v/v ratio to obtain spray solutions containing the highest application rates. Additional application rates were obtained by serial dilution of 12 mL of the high rate solution into a solution containing 2 mL of 97:3 v/v (volume/volume) mixture of acetone and dimethyl sulfoxide (DMSO) and 10 mL of an aqueous mixture containing acetone, water, isopropyl alcohol, DMSO, Atplus 411F crop oil concentrate, and Triton X-155 surfactant in a 48.5:39:10:1.5:1.0:0.02 v/v ratio to obtain ½×, ¼×, ⅛× and 1/16× rates of the high rate. Compound requirements are based upon a 12 mL application volume at a rate of 187 L/ha. Formulated compounds were applied to the plant material with an overhead Mandel track sprayer equipped with a 8002E nozzles calibrated to deliver 187 L/ha over an application area of 0.503 square meters at a spray height of 18 inches (43 cm) above the average plant canopy height. Control plants were sprayed in the same manner with the solvent blank.
(§3) The treated plants and control plants were placed in a greenhouse as described above and watered by sub-irrigation to prevent wash-off of the test compounds. After 14 days, the condition of the test plants as compared with that of the untreated plants was determined visually and scored on a scale of 0 to 100 percent where 0 corresponds to no injury and 100 corresponds to complete kill.
(§4) By applying the well-accepted probit analysis as described by J. Berkson in Journal of the […], 48, 565 (1953) and by D. Finney in “Probit Analysis” Cambridge University Press (1952), the above data can be used to calculate GR50 and GR80 values, which are defined as growth reduction factors that correspond to the effective dose of herbicide required to kill or control 50 percent or 80 percent, respectively, of a target plant.

In series [2] the test system is ABUTH = velvetleaf (Abutilon theophrasti). Briefly: General postemergence herbicidal activity, velvetleaf. Particulars: post-emergent, 140 g ai/ha, visual score after 14 days (0 no injury, 100 complete kill); for pest or weed control at 140 g/ha: Abutilon theophrasti, post-emergence, 336 h. It counts as in vivo. On the procedure: as §1, §2, §3, §4
The test system of series [3] is HELAN = sunflower (Helainthus annuus). In words: General postemergence herbicidal activity, sunflower. The class given is in vivo. Particulars: post-emergent, 140 g ai/ha, visual score after 14 days (0 no injury, 100 complete kill); for pest or weed control at 140 g/ha: post-emergence, 336 h. On the procedure:
as §1, §2, §3, §4

For series [4], the system named is CHEAL = lambsquarter (Chenopodium album). In words: General preemergence herbicidal activity, lambsquarter. It counts as in vivo. Particulars: pre-emergent, visual score after 20-22 days. From the text: (§5) Seeds of the desired test plant species were planted in a soil matrix prepared by mixing a loam soil (43 percent silt, 19 percent clay, and 38 percent sand, with a pH of about 8.1 and an organic matter content of about 1.5 percent) and sand in a 70 to 30 ratio. The soil matrix was contained in plastic pots with a surface area of 113 square centimeters. When required to ensure good germination and healthy plants, a fungicide treatment and/or other chemical or physical treatment was applied. A weighed amount, determined by the highest rate to be tested, of each test compound was placed in a 25 mL glass vial and was dissolved in 6 mL of a 97:3 v/v (volume/volume) mixture of acetone and DMSO to obtain concentrated stock solutions. […] The stock solutions obtained were diluted with 18 mL of a 0.1% v/v aqueous solution of Tween® 20 surfactant to obtain spray solutions containing the highest application rate. Additional application rates were obtained by serial dilution of 12 mL of the high rate solution into a solution containing 3 mL of 97:3 v/v mixture of acetone and DMSO and 9 mL of the 0.1% v/v aqueous solution of Tween® 20 surfactant to obtain 1⁄2×, 1⁄4×, 1⁄8× and 1/16× rates of the high rate. Compound requirements are based upon a 12 mL application volume at a rate of 187 L/ha. Formulated compounds were applied to the plant material with an overhead Mandel track sprayer equipped with a […] nozzles calibrated to deliver 187 L/ha over an application area of 0.503 square meters at a spray height of 18 inches (43 cm) above the soil surface. Control plants were sprayed in the same manner with the solvent blank. The treated pots and control pots were placed in a greenhouse maintained with an approximate 15 hour photoperiod and temperatures of about 23-29° C. during the day and 22-28° C. during the night. Nutrients and water were added on a regular basis and supplemental lighting was provided with overhead metal halide 1000-Watt lamps as necessary. The water was added by top-irrigation. After 20-22 days, the condition of the test plants that germinated and grew as compared with that of the untreated plants that emerged and grew was determined visually and scored on a scale of 0 to 100 percent where 0 corresponds to no injury and 100 corresponds to complete kill or no emergence.

Series [5] has as its system ABUTH = velvetleaf (Abutilon theophrasti). Briefly: General preemergence herbicidal activity, velvetleaf. Particulars: pre-emergent, visual score after 20-22 days. The class given is in vivo.
Excerpt: as §5

For series [6], the system named is HELAN = sunflower (Helianthus annuus). Briefly: General preemergence herbicidal activity, sunflower. The class given is in vivo. The note with it: pre-emergent, visual score after 20-22 days.
Excerpt: as §5

With `CN(C)c1c(Cl)ccc(-c2nc(N)c(Cl)c(C(=O)O)n2)c1F` [Compound 23, 6-Amino-5-chloro-2-(4-chloro-3-dimethylamino-2-fluorophenyl)pyrimidine-4-carboxylic acid], the melting point lay in the range of 181 to 183 °C. Besides, the pest or weed control at 140 g/ha in series [1] came to 100%. For the same compound, in series [2], the pest or weed control at 140 g/ha was 95%. Further, the pest or weed control at 140 g/ha in series [3] is 95%.
Compound `Nc1nc(-c2ccc(Cl)c(C(F)F)c2F)nc(C(=O)O)c1Cl` [Compound 24, 6-Amino-5-chloro-2-(4-chloro-3-difluoromethyl-2-fluorophenyl)pyrimidine-4-carboxylic acid] came in with a melting point of 166 to 168 °C. This compound also had a pest or weed control at 140 g/ha in series [1] of 95%. The compound further registered a pest or weed control at 140 g/ha in series [2] of 80%. In addition, the pest or weed control at 140 g/ha in series [3] came to 90%.
The compound `COc1c(Cl)ccc(-c2nc(N)c(Br)c(C(=O)O)n2)c1F` [Compound 25, 6-Amino-5-bromo-2-(4-chloro-2-fluoro-3-methoxyphenyl)pyrimidine-4-carboxylic acid] had a melting point of 173 to 175 °C. For the same compound, the pest or weed control at 140 g/ha in series [1] was 100%. The compound also gave a pest or weed control at 140 g/ha in series [2] of 95%. In series [3], the pest or weed control at 140 g/ha turned out to be 100%.
As for `Cc1c(Cl)ccc(-c2nc(N)c(Cl)c(C(=O)O)n2)c1F` [Compound 20, 6-Amino-5-chloro-2-(4-chloro-2-fluoro-3-methylphenyl)pyrimidine-4-carboxylic acid], the melting point was in the range of 210 to 212 °C. Further, in series [1], the pest or weed control at 140 g/ha stood at 100%. The compound also registered a pest or weed control at 140 g/ha in series [2] of 90%. In series [3], this compound registered a pest or weed control at 140 g/ha of 100%.
As for `Nc1nc(-c2ccc(Cl)c(OCC(F)F)c2F)nc(C(=O)O)c1Cl` [Compound 21, 6-Amino-5-chloro-2-[4-chloro-3-(2,2-difluoroethoxy)-2-fluorophenyl]-pyrimidine-4-carboxylic acid], the pest or weed control at 140 g/ha in series [1] was determined as 90%; in series [2] it was 0%; in series [3] it was 80%.
On to `COC(=O)c1nc(-c2ccc(Cl)c(OC)c2F)nc(N)c1F` [Compound 12, 6-amino-2-(4-chloro-2-fluoro-3-methoxy-phenyl)-5-fluoro-pyrimidine-4-carboxylic acid methyl ester], for which the melting point fell in the range of 200 to 202 °C. Moreover, the pest or weed control at 140 g/ha in series [1] was 95%. Also, the pest or weed control at 140 g/ha in series [2] turned out to be 85%. For the same compound, the pest or weed control at 140 g/ha in series [3] worked out at 100%.
`CCOc1c(Cl)ccc(-c2nc(N)c(Cl)c(C(=O)O)n2)c1F` [Compound 19, 6-Amino-5-chloro-2-(4-chloro-3-ethoxy-2-fluorophenyl)pyrimidine-4-carboxylic acid] showed a melting point of 132 to 134 °C. In series [1], this compound registered a pest or weed control at 140 g/ha of 90%. The same compound displayed a pest or weed control at 140 g/ha in series [2] of 95%. The compound further displayed a pest or weed control at 140 g/ha in series [3] of 95%. Besides, the pest or weed control at 280 g/ha in series [4] (Chenopodium album, pre-emergence, 480 h, 280 g ai/ha) was found to be 75%. The pest or weed control at 280 g/ha in series [5] (Abutilon theophrasti, pre-emergence, 480 h, 280 g ai/ha) came out at 80%. Moreover, in series [6] (Helianthus annuus, pre-emergence, 480 h, 280 g ai/ha), the pest or weed control at 280 g/ha amounted to 90%.
Consider `COC(=O)c1nc(-c2cc(OC)c(Cl)cc2F)nc(N)c1Cl` [Compound 5, 6-Amino-5-chloro-2-(4-chloro-2-fluoro-5-methoxyphenyl)pyrimidine-4-carboxylic acid methyl ester], for which the pest or weed control at 140 g/ha was determined as 100% in series [1], 95% in series [2] and 95% in series [3].
Regarding `Cc1c(F)sc(-c2nc(N)c(Cl)c(C(=O)O)n2)c1Cl` [Compound 16, 6-Amino-5-chloro-2-(4-chloro-2-fluoro-3-methylthiophenyl)pyrimidine-4-carboxylic acid], the melting point lay within 139 to 141 °C.
Regarding `COc1c(Cl)ccc(-c2nc(N)c(Cl)c(C(=O)O)n2)c1Cl` [Compound 18, 6-Amino-5-chloro-2-(2,4-dichloro-3-methoxyphenyl)pyrimidine-4-carboxylic acid], the pest or weed control at 140 g/ha in series [1] worked out at 100%; in series [2], 75%; in series [3], 95%; in series [4] (Chenopodium album, pre-emergence, 480 h, 140 g ai/ha), 100%; in series [5] (Abutilon theophrasti, pre-emergence, 480 h, 140 g ai/ha), 100%; in series [6] (Helianthus annuus, pre-emergence, 480 h, 140 g ai/ha), 100%.
With `Nc1nc(-c2ccc3c(c2F)OCO3)nc(C(=O)O)c1Cl` [Compound 22, 6-Amino-5-chloro-2-(4-fluoro-benzo[1,3]-dioxol-5-yl)pyrimidine-4-carboxylic acid], the pest or weed control at 140 g/ha turned out to be 95% in series [1], 80% in series [2] and 90% in series [3].
In the case of `COc1cc(-c2nc(N)c(Cl)c(C(=O)O)n2)c(F)cc1Cl` [Compound 17, 6-Amino-5-chloro-2-(4-chloro-2-fluoro-5-methoxyphenyl)pyrimidine-4-10 carboxylic acid], the “% Control CHEAL” value in series [1] came out at 100%; in series [4] (140 g ai/ha) it was 95%. In addition, the figures for the “% Control ABUTH” value in series [2] and in series [5] (140 g ai/ha) were 50% and 100%, respectively. The “% Control HELAN” value was 80% in series [3] and 0% in series [6] (140 g ai/ha).
Regarding `COC(=O)c1nc(-c2ccc(Cl)c(SC(F)(F)F)c2F)nc(N)c1Cl` [Compound 14, 6-amino-5-chloro-2-(4-chloro-2-fluoro-3-trifluoro-methylthiophenyl)pyrimidine-4-carboxylic acid methyl ester], the melting point was in the range of 167 to 169 °C. The compound also had a pest or weed control at 140 g/ha in series [1] of 50%. The compound also registered a pest or weed control at 140 g/ha in series [2] of 80%. Further, the pest or weed control at 140 g/ha in series [3] is 90%.
